Laboratory results: patent US10167262B2, “Herbicidal substituted 3-arylpyrazoles” (FMC CORPORATION, priority 2014, dated 2019)

Test system: soybean (GLXMA, Glycine max)
Assay: Test H postemergence mixture test of compound 39 with commercial herbicides, observed and Colby expected effect 0-100
Assay type: in vivo
Settings: Cmpd 39 alone, 14 days after treatment
Text: This test evaluated the effect of mixtures of compound 39 with three commercial herbicides on five plant species. Seeds of plant species selected from corn (ZEAMD, Zea mays), soybean (GLXMA, Glycine max), palmer pigweed (AMAPA, Amaranthus palmeri), waterhemp (common waterhemp, AMATA, Amaranthus rudis), and Kochia (KCHSC, Kochia scoparia) were planted in pots containing Redi-Earth® planting medium (Scotts Company, 14111 Scottslawn Road, Marysville, Ohio 43041) comprising spaghnum peat moss, vermiculite, wetting agent and starter nutrients and treated with postemergence applications of test chemicals formulated in a non-phytotoxic solvent mixture which included a surfactant and applied using a volume of 299 L/ha. Each treatment was replicated four times. Treated plants and controls were maintained in a greenhouse using supplemental lighting to maintain a photoperiod of about 16 h; daytime and nighttime temperatures were about 24-30° C. and 19-21° C., respectively. Nutrients were applied using a balanced fertilizer applied through the watering system. At 14 days after treatment, all species were compared to controls and visually evaluated. Plant response ratings were calculated as the mean of the four replicates, are summarized in Tables H1 through H6, and are based on a scale of 0 to 100 where 0 is no effect and 100 is complete control. A dash (-) response means no test result.
Colby's Equation was used to determine the herbicidal effects expected from the mixtures. Colby's Equation (Colby, S. R. “Calculating Synergistic and Antagonistic Responses of Herbicide Combinations,” Weeds, 15(1), pp 20-22 (1967)) calculates the expected additive effect of herbicidal mixtures and for two active ingredients is of the form: Pa+b=Pa+Pb−(PaPb/100) • where • Pa+b is the percentage effect of the mixture expected from additive contribution of the individual components: • Pa is the observed percentage effect of the first active ingredient at the same use rate as in the mixture, and • Pb is the observed percentage effect of the second active ingredient at the same use rate as in the mixture. In the following Tables, rates are shown in grams of active ingredient per hectare (g a.i./ha); “Obsd.” is the observed effect. “Exp.” is the expected effect calculated from Colby's Equation.

Measured: GLXMA Obsd. (observed effect)

C#CCn1cc(C(=O)c2ccccc2)c(-c2cc(Cl)cc(Cl)c2)n1 [Compound 39, [3-(3,5-dichlorophenyl)-1-(2-propyn-1-yl)-1H-pyrazol-4-yl]phenylmethanone]
0: 16 g a.i./ha | 31 g a.i./ha | 62 g a.i./ha
